{"source": "patent US10822317B2", "about": "“Methods and compositions for wound healing” (QBiotics Limited, priority 2013, dated 2020)", "key": {"mouse skin": {"tested_on": "mouse skin", "experiment": "Acute inflammatory response in mouse skin", "type": "in vivo", "conditions": "male nude mice, s.c. 50 μL of 100 μg/mL; for scarring of the healed site: 14 days; for diameter of affected area of skin: by 24 hr", "description": "Male nude mice were injected subcutaneously on each flank with 50 μL of solutions of 100 μg/mL of Compounds 1, 2, 5 and 42 respectively in 20% propylene glycol. Each site reddened within 4 hr and by 24 hr the affected area covered approximately 1 cm diameter of skin."}, "[1]": {"tested_on": "human neonatal fibroblasts", "experiment": "Scratch closure, human neonatal fibroblasts, Method 1", "type": "cell-based", "description": "The ability of early. passage neonatal foreskin fibroblasts (NFF) cultured in RPMI 1640-10% foetal calf serum to migrate across a scratch wound made in a confluent monolayer following treatment with purified compounds or plant extracts was determined using one or more of the following three methods.\nCells were seeded in 16-mm diameter wells (24-well plates), allowed to become confluent and 2 scratches made in each well using a sterile plastic pipette tip. The medium was removed, the wells washed with phosphate-buffered saline pH 7.2 (PBS) to remove dislodged cells, fresh medium added followed by serial 10-fold dilutions of pure compound or plant extract (2 μL). Incubation was continued for 16 to 30 hr. The experiment was terminated when the scratch edges of untreated cultures had closed approximately 25% of the initial gap. The monolayers were washed with PBS, fixed with ethanol and stained with 0.05% crystal violet. Photomicrographs of each well (EVOS microscope) were printed and each scratch measured at 3 places to determine the mean width. Accelerated wound closure-was considered to be significant if the remaining gap was <40% of the gap of the untreated controls: […]"}, "[2]": {"tested_on": "human peripheral blood mononuclear cells (PBMCs)", "experiment": "Cytokine production by PBMCs (Cytometric Bead Array)", "type": "cell-based", "conditions": "24 hr, ± standard deviation", "text": "Specific cytokines play critical roles in wound healing processes, and agents that modulate these substances may be useful in treating wounds and/or improving the cosmetic outcomes of healing (e.g. reduced scarring). The effects of Compounds 1, 2, 5 and 42 on regulation of four cytokines (IL-1β, IL-6, IL-8 and TNFα) known to be critical in early stages of the wound healing process were investigated in human peripheral blood mononuclear cells (PBMCs).\nPBMCs were isolated by Ficoll-Paque sedimentation of heparinised blood acquired from both a person (Donor 1) and (Donor 2) human donor. All cells were cultured in 10% FCS, RPMI as detailed previously.\nPBMCs were seeded at a density of 1.5×10^5 cells per well in 10% FCS, RPMI. Stimulation of these cells with the four compounds was performed at four concentrations (0 ng/mL, 3 ng/mL, 30 ng/mL, 300 ng/mL) in duplicate for 24 h in a humidified incubator at 37° C., 5% CO2. Media samples were taken from each of the required wells and frozen at −80° C. until use.\nCytometric Bead Array (CBA) assays were used to measure the results. CBA assays provide a method for capturing a soluble analyte or set of analytes using antibody coated beads of known sizes and fluorescence. Detection is then performed using another fluorescently labelled secondary antibody to form a sandwich complex. Each media sample was assayed for the presence of soluble […], IL-6, IL-8, IL-10, IL-12p70 and TNFα using a BD (Becton Dickinson) CBA Human Inflammatory Cytokine Detection Kit according to manufacturers' instructions. Mean fluorescence intensity values from each sample were compared against a standard curve to determine cytokine concentrations (pg/mL)."}}, "data": [{"smiles": "CCC(C)C(=O)OC1C(C)C2(O)C(C3OC3(CO)C(O)C3(O)C(=O)C(C)=CC32)C2C(C)(C)C12OC(=O)C(C)CC", "note": "(stereo not drawn) [Compound 2, 12,13-di-(2-methylbutanoyl)-6,7-epoxy-4,5,9,12,13,20-hexahydroxy-1-tigliaen-3-one]", "values": [{"measurement": "scarring of the healed site", "setting": "mouse skin", "value": "minimal scarring"}, {"measurement": "diameter of affected area of skin", "setting": "mouse skin", "value": "approximately 1 cm"}, {"measurement": "% closure compared to control", "setting": "[1]; 30 ng/mL", "value": 130, "unit": "%"}, {"measurement": "% closure compared to control", "setting": "[1]; 100 ng/mL", "value": 129, "unit": "%"}, {"measurement": "IL-1β level", "setting": "[2]; Donor 1, 3 ng/mL", "value": "1.4 ± 1.2", "unit": "pg/mL"}, {"measurement": "IL-6 level", "setting": "[2]; Donor 1, 3 ng/mL", "value": "9.1 ± 0.2", "unit": "pg/mL"}, {"measurement": "IL-8 level", "setting": "[2]; Donor 1, 3 ng/mL", "value": "2099 ± 585", "unit": "pg/mL"}, {"measurement": "TNFα level", "setting": "[2]; Donor 1, 3 ng/mL", "value": "31.15 ± 6.9", "unit": "pg/mL"}, {"measurement": "IL-1β level", "setting": "[2]; Donor 1, 30 ng/mL", "value": "1.21 ± 0.4", "unit": "pg/mL"}, {"measurement": "IL-6 level", "setting": "[2]; Donor 1, 30 ng/mL", "value": "38 ± 3.9", "unit": "pg/mL"}, {"measurement": "IL-8 level", "setting": "[2]; Donor 1, 30 ng/mL", "value": "18229 ± 2592", "unit": "pg/mL"}, {"measurement": "TNFα level", "setting": "[2]; Donor 1, 30 ng/mL", "value": "314.07 ± 37.9", "unit": "pg/mL"}, {"measurement": "IL-1β level", "setting": "[2]; Donor 1, 300 ng/mL", "value": "37.7 ± 4.6", "unit": "pg/mL"}, {"measurement": "IL-6 level", "setting": "[2]; Donor 1, 300 ng/mL", "value": "84.1 ± 3.6", "unit": "pg/mL"}, {"measurement": "IL-8 level", "setting": "[2]; Donor 1, 300 ng/mL", "value": "16634 ± 625", "unit": "pg/mL"}, {"measurement": "TNFα level", "setting": "[2]; Donor 1, 300 ng/mL", "value": "330.0 ± 28.7", "unit": "pg/mL"}, {"measurement": "IL-1β level", "setting": "[2]; Donor 2, 3 ng/mL", "value": "6.7 ± 1.5", "unit": "pg/mL"}, {"measurement": "IL-6 level", "setting": "[2]; Donor 2, 3 ng/mL", "value": "14.9 ± 1.1", "unit": "pg/mL"}, {"measurement": "IL-8 level", "setting": "[2]; Donor 2, 3 ng/mL", "value": "2608 ± 309", "unit": "pg/mL"}, {"measurement": "TNFα level", "setting": "[2]; Donor 2, 3 ng/mL", "value": "27.3 ± 8.3", "unit": "pg/mL"}, {"measurement": "IL-1β level", "setting": "[2]; Donor 2, 30 ng/mL", "value": "52.6 ± 5.0", "unit": "pg/mL"}, {"measurement": "IL-6 level", "setting": "[2]; Donor 2, 30 ng/mL", "value": "14.5 ± 3.3", "unit": "pg/mL"}, {"measurement": "IL-8 level", "setting": "[2]; Donor 2, 30 ng/mL", "value": "26401 ± 271", "unit": "pg/mL"}, {"measurement": "TNFα level", "setting": "[2]; Donor 2, 30 ng/mL", "value": "211.5 ± 12.4", "unit": "pg/mL"}, {"measurement": "IL-1β level", "setting": "[2]; Donor 2, 300 ng/mL", "value": "123.9 ± 1.0", "unit": "pg/mL"}, {"measurement": "IL-6 level", "setting": "[2]; Donor 2, 300 ng/mL", "value": "41.4 ± 2.3", "unit": "pg/mL"}, {"measurement": "IL-8 level", "setting": "[2]; Donor 2, 300 ng/mL", "value": "34117 ± 630", "unit": "pg/mL"}, {"measurement": "TNFα level", "setting": "[2]; Donor 2, 300 ng/mL", "value": "618.1 ± 63.7", "unit": "pg/mL"}]}, {"smiles": "CC=C(C)C(=O)OC1C(C)C2(O)C(C3OC3(CO)C(O)C3(O)C(=O)C(C)=CC32)C2C(C)(C)C12OC(=O)C(C)CC", "note": "(stereo not drawn) [Compound 1, 12-tigloyl-13-(2-methylbutanoyl)-6,7-epoxy-4,5,9,12,13,20-hexahydroxy-1-tigliaen-3-one]", "values": [{"measurement": "scarring of the healed site", "setting": "mouse skin", "value": "minimal scarring"}, {"measurement": "diameter of affected area of skin", "setting": "mouse skin", "value": "approximately 1 cm"}, {"measurement": "% closure compared to control", "setting": "[1]; 30 ng/mL", "value": 166, "unit": "%"}, {"measurement": "% closure compared to control", "setting": "[1]; 100 ng/mL", "value": 146, "unit": "%"}, {"measurement": "staining pattern / growth of fibroblasts under the microscope", "setting": "[1]; 24 hours post scratch", "value": "growing in a multilayered fashion"}, {"measurement": "IL-1β level", "setting": "[2]; Donor 1, 3 ng/mL", "value": "1.2 ± 0.2", "unit": "pg/mL"}, {"measurement": "IL-6 level", "setting": "[2]; Donor 1, 3 ng/mL", "value": "9.7 ± 1.2", "unit": "pg/mL"}, {"measurement": "IL-8 level", "setting": "[2]; Donor 1, 3 ng/mL", "value": "1720 ± 157", "unit": "pg/mL"}, {"measurement": "TNFα level", "setting": "[2]; Donor 1, 3 ng/mL", "value": "24.3 ± 1.4", "unit": "pg/mL"}, {"measurement": "IL-1β level", "setting": "[2]; Donor 1, 30 ng/mL", "value": "11.9 ± 0.8", "unit": "pg/mL"}, {"measurement": "IL-6 level", "setting": "[2]; Donor 1, 30 ng/mL", "value": "34.2 ± 1.1", "unit": "pg/mL"}, {"measurement": "IL-8 level", "setting": "[2]; Donor 1, 30 ng/mL", "value": "16920 ± 1198", "unit": "pg/mL"}, {"measurement": "TNFα level", "setting": "[2]; Donor 1, 30 ng/mL", "value": "324.4 ± 0.0", "unit": "pg/mL"}, {"measurement": "IL-1β level", "setting": "[2]; Donor 1, 300 ng/mL", "value": "39 ± 0.2", "unit": "pg/mL"}, {"measurement": "IL-6 level", "setting": "[2]; Donor 1, 300 ng/mL", "value": "89.5 ± 13.8", "unit": "pg/mL"}, {"measurement": "IL-8 level", "setting": "[2]; Donor 1, 300 ng/mL", "value": "16419 ± 40", "unit": "pg/mL"}, {"measurement": "TNFα level", "setting": "[2]; Donor 1, 300 ng/mL", "value": "355.0 ± 4.3", "unit": "pg/mL"}, {"measurement": "IL-1β level", "setting": "[2]; Donor 2, 3 ng/mL", "value": "3.1 ± 0.9", "unit": "pg/mL"}, {"measurement": "IL-6 level", "setting": "[2]; Donor 2, 3 ng/mL", "value": "8.3 ± 0.4", "unit": "pg/mL"}, {"measurement": "IL-8 level", "setting": "[2]; Donor 2, 3 ng/mL", "value": "1493 ± 2", "unit": "pg/mL"}, {"measurement": "TNFα level", "setting": "[2]; Donor 2, 3 ng/mL", "value": "11.2 ± 0.3", "unit": "pg/mL"}, {"measurement": "IL-1β level", "setting": "[2]; Donor 2, 30 ng/mL", "value": "43.9 ± 1.7", "unit": "pg/mL"}, {"measurement": "IL-6 level", "setting": "[2]; Donor 2, 30 ng/mL", "value": "12.6 ± 0.9", "unit": "pg/mL"}, {"measurement": "IL-8 level", "setting": "[2]; Donor 2, 30 ng/mL", "value": "24078 ± 815", "unit": "pg/mL"}, {"measurement": "TNFα level", "setting": "[2]; Donor 2, 30 ng/mL", "value": "209.6 ± 7.5", "unit": "pg/mL"}, {"measurement": "IL-1β level", "setting": "[2]; Donor 2, 300 ng/mL", "value": "121.6 ± 5.6", "unit": "pg/mL"}, {"measurement": "IL-6 level", "setting": "[2]; Donor 2, 300 ng/mL", "value": "38.8 ± 9.0", "unit": "pg/mL"}, {"measurement": "IL-8 level", "setting": "[2]; Donor 2, 300 ng/mL", "value": "32021 ± 1156", "unit": "pg/mL"}, {"measurement": "TNFα level", "setting": "[2]; Donor 2, 300 ng/mL", "value": "592.2 ± 24.7", "unit": "pg/mL"}]}]}
